Reference: PubChem BioAssay (NCI)
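Exposure lasted 48 hours, with cells grown in 96-well plates and compounds tested at five concentrations. TGI is the concentration that stops growth completely.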

Assays:
Test in all cases: NCI tumour cell line growth inhibition, 48 h
[1] = test system: 786-0 renal
[2] = test system: A498 renal
[3] = test system: A549 NSCLC
[4] = test system: ACHN renal
[5] = test system: BT-549 breast
[6] = test system: CAKI-1 renal
[7] = test system: CCRF-CEM leukemia
[8] = test system: COLO 205 colon
[9] = test system: DU-145 prostate
[10] = test system: EKVX NSCLC
[11] = test system: HCC-2998 colon
[12] = test system: HCT-116 colon
[13] = test system: HCT-15 colon
[14] = test system: HL-60(TB) leukemia
[15] = test system: HOP-62 NSCLC
[16] = test system: HOP-92 NSCLC
[17] = test system: HS 578T breast
[18] = test system: HT29 colon
[19] = test system: IGROV1 ovarian
[20] = test system: K-562 leukemia
[21] = test system: KM12 colon
[22] = test system: LOX IMVI melanoma
[23] = test system: M14 melanoma
[24] = test system: MALME-3M melanoma
[25] = test system: MCF7 breast
[26] = test system: MDA-MB-231 breast
[27] = test system: MDA-MB-435
[28] = test system: MDA-N
[29] = test system: MOLT-4 leukemia
[30] = test system: NCI-H226 lung
[31] = test system: NCI-H23 lung
[32] = test system: NCI-H460 lung
[33] = test system: NCI-H522 lung
[34] = test system: NCI/ADR-RES ovarian
[35] = test system: OVCAR-3 ovarian
[36] = test system: OVCAR-4 ovarian
[37] = test system: OVCAR-5 ovarian
[38] = test system: OVCAR-8 ovarian
[39] = test system: PC-3 prostate
[40] = test system: RPMI-8226 leukemia
[41] = test system: RXF 393 renal
[42] = test system: SF-268 CNS
[43] = test system: SF-295 CNS
[44] = test system: SF-539 CNS
[45] = test system: SK-MEL-2 melanoma
[46] = test system: SK-MEL-28 melanoma
[47] = test system: SK-MEL-5 melanoma
[48] = test system: SK-OV-3 ovarian
[49] = test system: SN12C renal
[50] = test system: SNB-19 CNS
[51] = test system: SNB-75 CNS
[52] = test system: SR leukemia
[53] = test system: SW-620 colon
[54] = test system: T-47D breast
[55] = test system: TK-10 renal
[56] = test system: U251 CNS
[57] = test system: UACC-257 melanoma
[58] = test system: UACC-62 melanoma
[59] = test system: UO-31 renal

SMILES: c1ccc2c(c1)c1c3n2-c2cc(on2)C3CCC1 (stereo unspecified)
- TGI [1]: > 100 µM
- TGI [2]: > 100 µM
- TGI [3]: > 100 µM
- TGI [4]: > 100 µM
- TGI [5]: > 100 µM
- TGI [6]: > 100 µM
- TGI [7]: > 100 µM
- TGI [8]: > 100 µM
- TGI [9]: > 100 µM
- TGI [10]: > 100 µM
- TGI [11]: > 100 µM
- TGI [12]: > 100 µM
- TGI [13]: > 100 µM
- TGI [14]: > 100 µM
- TGI [15]: > 100 µM
- TGI [16]: > 100 µM
- TGI [17]: > 100 µM
- TGI [18]: > 100 µM
- TGI [19]: > 100 µM
- TGI [20]: > 100 µM
- TGI [21]: > 100 µM
- TGI [22]: > 100 µM
- TGI [23]: > 100 µM
- TGI [24]: > 100 µM
- TGI [25]: > 100 µM
- TGI [26]: > 100 µM
- TGI [27]: > 100 µM
- TGI [28]: > 100 µM
- TGI [29]: > 100 µM
- TGI [30]: > 100 µM
- TGI [31]: > 100 µM
- TGI [32]: > 100 µM
- TGI [33]: > 100 µM
- TGI [34]: > 100 µM
- TGI [35]: > 100 µM
- TGI [36]: > 100 µM
- TGI [37]: > 100 µM
- TGI [38]: > 100 µM
- TGI [39]: > 100 µM
- TGI [40]: > 100 µM
- TGI [41]: > 100 µM
- TGI [42]: > 100 µM
- TGI [43]: > 100 µM
- TGI [44]: > 100 µM
- TGI [45]: > 100 µM
- TGI [46]: > 100 µM
- TGI [47]: > 100 µM
- TGI [48]: > 100 µM
- TGI [49]: > 100 µM
- TGI [50]: > 100 µM
- TGI [51]: > 100 µM
- TGI [52]: > 100 µM
- TGI [53]: > 100 µM
- TGI [54]: > 100 µM
- TGI [55]: > 100 µM
- TGI [56]: > 100 µM
- TGI [57]: > 100 µM
- TGI [58]: > 100 µM
- TGI [59]: > 100 µM

SMILES: COc1cc(N=Nc2cccc(S(N)(=O)=O)c2)c2ccccc2c1N
- TGI [1]: 26.9 µM
- TGI [2]: 34.7 µM
- TGI [3]: 33 µM
- TGI [4]: 30.3 µM
- TGI [5]: 20.7 µM
- TGI [6]: 20.8 µM
- TGI [7]: 38.6 µM
- TGI [8]: 26.5 µM
- TGI [9]: 3.43 µM
- TGI [10]: 27.4 µM
- TGI [11]: 20.7 µM
- TGI [12]: 29.2 µM
- TGI [13]: 49.5 µM
- TGI [14]: 23.6 µM
- TGI [15]: 21.8 µM
- TGI [16]: > 58 µM
- TGI [17]: > 27.2 µM
- TGI [18]: 31 µM
- TGI [19]: 28.4 µM
- TGI [20]: 37.7 µM
- TGI [21]: 26.4 µM
- TGI [22]: 18.1 µM
- TGI [23]: 3.43 µM
- TGI [24]: 3.13 µM
- TGI [25]: 20.5 µM
- TGI [26]: 26.5 µM
- TGI [27]: 3.71 µM
- TGI [28]: 5.63 µM
- TGI [29]: 25.2 µM
- TGI [30]: 39.7 µM
- TGI [31]: 6.72 µM
- TGI [32]: 25.7 µM
- TGI [33]: 30.6 µM
- TGI [34]: > 68.5 µM
- TGI [35]: 27.5 µM
- TGI [36]: 27.8 µM
- TGI [37]: 33.3 µM
- TGI [38]: 56 µM
- TGI [39]: 23.9 µM
- TGI [40]: 57.3 µM
- TGI [41]: 33.6 µM
- TGI [42]: 31.9 µM
- TGI [43]: 26.6 µM
- TGI [44]: 9.19 µM
- TGI [45]: 5.13 µM
- TGI [46]: 19.9 µM
- TGI [47]: 3.3 µM
- TGI [48]: 30.7 µM
- TGI [49]: 26.1 µM
- TGI [50]: 42.2 µM
- TGI [51]: 4.56 µM
- TGI [52]: 35.8 µM
- TGI [53]: > 95.3 µM
- TGI [54]: > 61.2 µM
- TGI [55]: 30.1 µM
- TGI [56]: 22.5 µM
- TGI [57]: 3.37 µM
- TGI [58]: 4.19 µM
- TGI [59]: 30.6 µM

SMILES: CSc1ccccc1P(CCP(c1ccccc1SC)c1ccccc1SC)c1ccccc1SC
- TGI [1]: > 100 µM
- TGI [2]: > 81.7 µM
- TGI [3]: > 100 µM
- TGI [4]: > 100 µM
- TGI [5]: > 100 µM
- TGI [6]: > 100 µM
- TGI [7]: 29.6 µM
- TGI [8]: > 53 µM
- TGI [9]: > 100 µM
- TGI [10]: 97.7 µM
- TGI [11]: > 100 µM
- TGI [12]: > 100 µM
- TGI [13]: > 100 µM
- TGI [14]: 16.3 µM
- TGI [15]: > 100 µM
- TGI [16]: > 100 µM
- TGI [17]: > 100 µM
- TGI [18]: > 100 µM
- TGI [19]: > 100 µM
- TGI [20]: > 100 µM
- TGI [21]: > 100 µM
- TGI [22]: > 100 µM
- TGI [23]: > 100 µM
- TGI [24]: > 100 µM
- TGI [25]: > 100 µM
- TGI [26]: > 100 µM
- TGI [27]: > 100 µM
- TGI [28]: > 100 µM
- TGI [29]: > 100 µM
- TGI [30]: > 45.2 µM
- TGI [31]: > 38.1 µM
- TGI [32]: > 80.1 µM
- TGI [33]: > 100 µM
- TGI [34]: > 100 µM
- TGI [35]: > 33.5 µM
- TGI [36]: > 100 µM
- TGI [37]: > 100 µM
- TGI [38]: > 100 µM
- TGI [39]: > 100 µM
- TGI [40]: > 88.1 µM
- TGI [41]: > 84.9 µM
- TGI [42]: > 100 µM
- TGI [43]: > 95.7 µM
- TGI [44]: > 79.1 µM
- TGI [45]: > 97.2 µM
- TGI [46]: > 100 µM
- TGI [47]: > 70.1 µM
- TGI [48]: > 55.4 µM
- TGI [49]: > 100 µM
- TGI [50]: > 100 µM
- TGI [51]: > 55.6 µM
- TGI [52]: > 42.6 µM
- TGI [53]: > 100 µM
- TGI [54]: > 100 µM
- TGI [55]: > 100 µM
- TGI [56]: > 100 µM
- TGI [57]: > 89.5 µM
- TGI [58]: > 100 µM
- TGI [59]: > 90.3 µM

SMILES: COC(=O)C[C@H](CCSC)NC(=O)C[C@H](CCSC)NC(=O)C[C@H](CCSC)NC(=O)OC(C)(C)C
- TGI [1]: > 100 µM
- TGI [2]: 46.4 µM
- TGI [3]: > 100 µM
- TGI [4]: > 100 µM
- TGI [5]: > 100 µM
- TGI [6]: > 100 µM
- TGI [7]: > 100 µM
- TGI [8]: > 100 µM
- TGI [9]: > 100 µM
- TGI [10]: > 100 µM
- TGI [11]: > 100 µM
- TGI [12]: > 100 µM
- TGI [13]: > 100 µM
- TGI [14]: > 100 µM
- TGI [15]: > 100 µM
- TGI [16]: 36.9 µM
- TGI [17]: > 100 µM
- TGI [18]: > 100 µM
- TGI [19]: > 100 µM
- TGI [20]: > 100 µM
- TGI [21]: > 100 µM
- TGI [22]: > 100 µM
- TGI [23]: > 100 µM
- TGI [24]: > 100 µM
- TGI [25]: > 100 µM
- TGI [26]: > 100 µM
- TGI [27]: > 100 µM
- TGI [28]: > 100 µM
- TGI [29]: > 100 µM
- TGI [30]: > 100 µM
- TGI [31]: > 100 µM
- TGI [32]: > 100 µM
- TGI [33]: > 100 µM
- TGI [34]: > 100 µM
- TGI [35]: 48 µM
- TGI [36]: 55.9 µM
- TGI [37]: > 100 µM
- TGI [38]: > 100 µM
- TGI [39]: > 100 µM
- TGI [40]: > 100 µM
- TGI [41]: 33.6 µM
- TGI [42]: 59.2 µM
- TGI [43]: 51.4 µM
- TGI [44]: 54.1 µM
- TGI [45]: 64.5 µM
- TGI [46]: > 100 µM
- TGI [47]: > 100 µM
- TGI [48]: 40 µM
- TGI [49]: > 100 µM
- TGI [50]: 51.5 µM
- TGI [51]: 29 µM
- TGI [52]: > 100 µM
- TGI [53]: > 100 µM
- TGI [54]: > 100 µM
- TGI [55]: 42.2 µM
- TGI [56]: 56 µM
- TGI [57]: > 100 µM
- TGI [58]: 84.3 µM
- TGI [59]: > 100 µM
